Results from patent publication US20190300927A1, “METABOLIC ASSAY FOR BACTERIAL GROWTH AND GRAM TYPING” (SELUX DIAGNOSTICS, INC., priority 2018, published 2019).

How the values were obtained:
[1] = tested on: clinical isolates of Pseudomonas aeruginosa; experiment: Resorufin fluorescence after 4 hour incubation with P. aeruginosa clinical isolates (FIG. 3); assay type: cell-based; details: resorufin alone 100 μM, no methylene blue, Mueller-Hinton broth, Ex560/Em590
Procedure: FIG. 3 Experiment: Four clinical isolates of P aeruginosa were inoculated into MHB at a 1:200 dilution from a 0.5 McFarland standard. Resorufin was added to each well at a 100 μM final concentration. Plates were incubated shaking for 4 hours at 37° C. Fluorescence was read at Ex560/Em590. Uninoculated MIHB with resorufin was included as a negative control.

gram-positive organisms = details: Fung and Miller 1973; cited from earlier work
gram-negative organisms = details: Fung and Miller 1973; cited from earlier work

Row | SMILES | remaining resorufin fluorescence after P. aeruginosa growth [1] | effect of high concentrations on gram-positive organisms (gram-positive organisms) | effect of high concentrations on gram-negative organisms (gram-negative organisms)
1 | O=c1ccc2nc3ccc(O)cc3oc-2c1 [resorufin] | does not eliminate the resorufin fluorescence | – | –
2 | CN(C)c1ccc2nc3ccc(=[N+](C)C)cc-3sc2c1 [methylene blue, Methylene blue] | – | inhibitory | tolerated
